Tested on: human washed platelets
Assay: ADP-induced aggregation of human washed platelets
Type: cell-based
Conditions: SCH442416 10 μM preapplication, data not shown

## COc1ccc(CCCn2ncc3c2nc(N)n2nc(-c4ccco4)nc32)cc1 [SCH442416, 5-Amino-7-(3-(4-methoxy)phenylpropyl)-2-(2-furyl)pyrazolo[4,3-e]-1,2,4-triazolo[1,5-c]pyrimidine]
5 μM ADP
  effect of antagonist on inhibition of platelet aggregation by 1 µM 10: completely reversed the inhibitory effect
  effect of antagonist alone on aggregation induced by 5 μM ADP: had no effect on aggregation

— PMC2721767 (Purinergic Signalling, 2008)
